The values that follow come from BindingDB's records for doi:10.1021/jm2005089 (National Human Genome Research Institute, 2011).

The assay deals with T1, Polyunsaturated fatty acid lipoxygenase ALOX12 (Homo sapiens, UniProt P18054).
T1 sequence (P18054 whole entry): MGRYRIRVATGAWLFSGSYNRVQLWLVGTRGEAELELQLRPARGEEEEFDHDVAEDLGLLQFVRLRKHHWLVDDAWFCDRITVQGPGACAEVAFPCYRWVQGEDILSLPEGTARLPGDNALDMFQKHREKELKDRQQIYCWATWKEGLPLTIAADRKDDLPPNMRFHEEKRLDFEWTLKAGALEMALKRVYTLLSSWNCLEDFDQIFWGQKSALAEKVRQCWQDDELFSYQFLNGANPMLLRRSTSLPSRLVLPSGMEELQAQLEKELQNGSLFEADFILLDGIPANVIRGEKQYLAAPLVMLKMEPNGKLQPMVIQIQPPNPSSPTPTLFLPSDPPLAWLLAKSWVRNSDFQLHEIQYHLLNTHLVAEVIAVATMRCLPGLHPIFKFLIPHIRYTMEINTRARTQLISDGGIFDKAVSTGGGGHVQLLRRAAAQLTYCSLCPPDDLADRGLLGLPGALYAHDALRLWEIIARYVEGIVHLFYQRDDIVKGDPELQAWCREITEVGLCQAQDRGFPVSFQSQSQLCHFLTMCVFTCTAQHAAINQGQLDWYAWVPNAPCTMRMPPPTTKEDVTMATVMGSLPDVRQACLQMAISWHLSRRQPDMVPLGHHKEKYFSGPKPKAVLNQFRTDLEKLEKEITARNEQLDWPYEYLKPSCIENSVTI
The assay can be described thus: Competitive inhibition of human platelet-type N-terminally His6-tagged 12-lipoxygenase assessed as 12-HPETE formation using arachidonic acid by Michaelis-Menten equation analysis.

By Ki is commonly meant the dissociation constant of the complex between target and ligand, obtained from inhibition or displacement. With `CC(=O)NC(c1cccs1)c1cc(Cl)c2cccnc2c1O` (stereo unspecified), the Ki is 0.7 µM.
